Assay results: patent US10039747B2, “Tetrahydrocyclopentapyrrole derivatives and a method for preparing the same” (Daewoong Pharmaceutical Co., Ltd., priority 2013, dated 2018)

target: T1, H+/K+-ATPase (Sus scrofa, UniProt P19156); assay: Inhibition of proton pump (H+/K+-ATPase) activity in hog gastric vesicles; type: biochemical; conditions: K+ specific H+/K+-ATPase activity, pH 7.4, 37° C. for 40 minutes, malachite green
T1 construct: reaction buffer solution (60 mmol/l Tris-HCl buffer solution, pH 7.4) containing hog gastric vesicle; from tissue; host or cells: hog stomach (gastric vesicles, by centrifugation after Rabon et al. 1988)
Procedure, shortened: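 Hog gastric vesicles in 60 mmol/l Tris-HCl pH 7.4 with compound, started with ATP, 40 min at 37° C. Pi read by malachite green at 570 nm; K+-specific activity taken as difference between +K+ and −K+ activity. IC50 from % inhibition by 4-parameter logistic fit.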

T1 sequence (P19156 2-1034 limits assumed): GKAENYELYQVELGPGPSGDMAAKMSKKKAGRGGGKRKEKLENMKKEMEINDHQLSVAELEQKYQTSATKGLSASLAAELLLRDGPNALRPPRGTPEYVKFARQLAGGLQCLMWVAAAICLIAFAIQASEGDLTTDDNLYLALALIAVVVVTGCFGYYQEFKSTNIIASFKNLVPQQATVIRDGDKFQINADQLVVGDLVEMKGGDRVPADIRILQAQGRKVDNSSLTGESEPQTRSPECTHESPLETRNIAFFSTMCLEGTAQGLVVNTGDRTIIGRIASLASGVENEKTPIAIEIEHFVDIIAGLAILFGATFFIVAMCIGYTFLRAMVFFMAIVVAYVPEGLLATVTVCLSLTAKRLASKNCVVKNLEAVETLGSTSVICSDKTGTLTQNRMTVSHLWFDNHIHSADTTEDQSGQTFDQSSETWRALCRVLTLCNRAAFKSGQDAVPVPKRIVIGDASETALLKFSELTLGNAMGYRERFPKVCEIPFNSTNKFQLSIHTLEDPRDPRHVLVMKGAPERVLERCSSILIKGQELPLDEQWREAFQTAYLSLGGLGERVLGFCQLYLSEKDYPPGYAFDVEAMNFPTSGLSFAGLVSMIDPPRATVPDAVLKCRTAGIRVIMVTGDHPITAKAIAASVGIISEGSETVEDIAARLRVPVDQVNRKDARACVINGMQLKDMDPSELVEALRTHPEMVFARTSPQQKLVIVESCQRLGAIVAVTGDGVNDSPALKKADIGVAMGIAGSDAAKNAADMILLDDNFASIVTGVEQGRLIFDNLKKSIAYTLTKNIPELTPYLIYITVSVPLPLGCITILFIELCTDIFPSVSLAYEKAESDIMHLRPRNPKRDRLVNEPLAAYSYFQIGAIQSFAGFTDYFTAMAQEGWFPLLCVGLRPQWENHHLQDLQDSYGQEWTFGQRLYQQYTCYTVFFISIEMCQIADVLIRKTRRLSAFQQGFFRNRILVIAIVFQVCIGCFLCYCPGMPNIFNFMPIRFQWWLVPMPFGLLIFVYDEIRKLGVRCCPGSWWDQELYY
T1 sequence (P18434 whole entry partner): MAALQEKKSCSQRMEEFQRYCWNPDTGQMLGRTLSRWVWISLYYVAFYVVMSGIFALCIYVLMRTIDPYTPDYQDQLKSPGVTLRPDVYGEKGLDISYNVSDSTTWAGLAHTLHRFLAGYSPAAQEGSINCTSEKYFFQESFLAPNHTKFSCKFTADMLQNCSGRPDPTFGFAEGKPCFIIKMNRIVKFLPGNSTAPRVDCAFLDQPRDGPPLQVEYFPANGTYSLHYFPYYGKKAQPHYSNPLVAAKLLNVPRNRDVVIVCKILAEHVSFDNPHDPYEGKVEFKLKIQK

| Structure (SMILES) | IC50 |
| --- | --- |
| CNC1CCc2c1cn(S(=O)(=O)c1cccc(Cl)c1)c2-c1ccccc1F (stereo not drawn) [Example 1] | 0.34 µM |
| CNC1CCc2c1cn(S(=O)(=O)c1cccc(F)c1)c2-c1ccc(F)cc1F (stereo not drawn) [Example 113, 1-(2,4-difluorophenyl)-2-((3-fluorophenyl)sulfonyl)-N-methyl-2,4,5,6-tetrahydrocyclopenta[c]pyrrol-4-amine] | 0.31 µM |
| CNC1CCCc2c1cn(S(=O)(=O)c1cccnc1)c2-c1ccccc1F (stereo not drawn) [Example 131, 1-(2-fluorophenyl)-N-methyl-2-(pyridin-3-ylsulfonyl)-4,5,6,7-tetrahydro-2H-isoindole-4-amine] | 1.5 µM |
| CNC1CCCc2c1cn(S(=O)(=O)c1cccnc1)c2-c1ccccc1C (stereo not drawn) [Example 132, N-methyl-2-(pyridin-3-ylsulfonyl)-1-(o-tolyl)-4,5,6,7-tetrahydro-2H-isoindole-4-amine] | 8 µM |
| CNC1CCCc2c1cn(S(=O)(=O)c1cccnc1)c2-c1ccccc1Cl (stereo not drawn) [Example 133, 1-(2-chlorophenyl)-N-methyl-2-(pyridin-3-ylsulfonyl)-4,5,6,7-tetrahydro-2H-isoindole-4-amine] | 2 µM |
| CNC1CCCc2c1cn(S(=O)(=O)c1cccnc1)c2-c1ccc(-c2ccccc2)cc1 (stereo not drawn) [Example 134, 1-([1,1′-biphenyl]-4-yl)-N-methyl-2-(pyridin-3-ylsulfonyl)-4,5,6,7-tetrahydro-2H-isoindole-4-amine] | 19.7 µM |
| CNC1CCCc2c1cn(S(=O)(=O)c1cccnc1)c2-c1ccc(F)cc1F (stereo not drawn) [Example 135, 1-(2,4-difluorophenyl)-N-methyl-2-(pyridin-3-ylsulfonyl)-4,5,6,7-tetrahydro-2H-isoindole-4-amine] | 5 µM |
| CN(C)C1CCCc2c1cn(S(=O)(=O)c1cccc(C(F)(F)F)c1)c2-c1ccccc1F (stereo not drawn) [Example 139, 1-(2-fluorophenyl)-N,N-dimethyl-2-((3-(trifluoromethyl)phenyl)sulfonyl)-4,5,6,7-tetrahydro-2H-isoindole-4-amine] | 9.07 µM |
| CN(C)c1cccc(S(=O)(=O)n2cc3c(c2-c2ccccc2F)CCCC3N(C)C)c1 (stereo not drawn) [Example 143, 2-((3-(dimethylamino)phenyl)sulfonyl)-1-(2-fluorophenyl)-N,N-dimethyl-4,5,6,7-tetrahydro-2H-isoindole-4-amine] | 5 µM |
| CN(C)C1CCCc2c1cn(S(=O)(=O)c1cccnc1)c2-c1ccccc1F (stereo not drawn) [Example 144, 1-(2-fluorophenyl)-N,N-dimethyl-2-(pyridin-3-ylsulfonyl)-4,5,6,7-tetrahydro-2H-isoindole-4-amine] | 8 µM |
| CNC1CCCCc2c1cn(S(=O)(=O)c1cccc(Cl)c1)c2-c1ccccc1F (stereo not drawn) [Example 145, 2-((3-chlorophenyl)sulfonyl)-1-(2-fluorophenyl)-N-methyl-2,4,5,6,7,8-hexahydrocyclohepta[c]pyrrol-4-amine] | 2.2 µM |
| CNC1CCCCc2c1cn(S(=O)(=O)c1cccnc1)c2-c1ccccc1F (stereo not drawn) [Example 146, 1-(2-fluorophenyl)-N-methyl-2-(pyridin-3-ylsulfonyl)-2,4,5,6,7,8-hexahydrocyclohepta[c]pyrrol-4-amine] | 4.5 µM |
| CCNC1CCCCc2c1cn(S(=O)(=O)c1cccc(Cl)c1)c2-c1ccccc1F (stereo not drawn) [Example 147, 2-((3-chlorophenyl)sulfonyl)-N-ethyl-1-(2-fluorophenyl)-2,4,5,6,7,8-hexahydrocyclohepta[c]pyrrol-4-amine] | 7.04 µM |

Second part, the compound after the results:

| IC50 | Structure (SMILES) |
| --- | --- |
| 15 µM | CN(C)C1CCCc2c1cn(S(=O)(=O)c1cccc(F)c1)c2-c1ccccc1F (stereo not drawn) [Example 136, 1-(2-fluorophenyl)-2-((3-fluorophenyl)sulfonyl)-N,N-dimethyl-4,5,6,7-tetrahydro-2H-isoindole-4-amine] |
| 6 µM | Cc1cccc(S(=O)(=O)n2cc3c(c2-c2ccccc2F)CCCC3N(C)C)c1 (stereo not drawn) [Example 137, 1-(2-fluorophenyl)-N,N-dimethyl-2-(m-tolylsulfonyl)-4,5,6,7-tetrahydro-2H-isoindole-4-amine] |
| 7.1 µM | CN(C)C1CCCc2c1cn(S(=O)(=O)c1cccc(Cl)c1)c2-c1ccccc1F (stereo not drawn) [Example 138, 2-((3-chlorophenyl)sulfonyl)-1-(2-fluorophenyl)-N,N-dimethyl-4,5,6,7-tetrahydro-2H-isoindole-4-amine] |
| 7 µM | COc1cccc(S(=O)(=O)n2cc3c(c2-c2ccccc2F)CCCC3N(C)C)c1 (stereo not drawn) [Example 140, 1-(2-fluorophenyl)-2-((3-methoxyphenyl)sulfonyl)-N,N-dimethyl-4,5,6,7-tetrahydro-2H-isoindole-4-amine] |
| 10.6 µM | CN(C)C1CCCc2c1cn(S(=O)(=O)c1cccc(OC(F)(F)F)c1)c2-c1ccccc1F (stereo not drawn) [Example 141, 1-(2-fluorophenyl)-N,N-dimethyl-2-((3-(trifluoromethoxy)phenyl)sulfonyl)-4,5,6,7-tetrahydro-2H-isoindole-4-amine] |
| 8 µM | CN(C)C1CCCc2c1cn(S(=O)(=O)c1cccc(OC(F)F)c1)c2-c1ccccc1F (stereo not drawn) [Example 142, 2-((3-(difluoromethoxy)phenyl)sulfonyl)-1-(2-fluorophenyl)-N,N-dimethyl-4,5,6,7-tetrahydro-2H-isoindole-4-amine] |

system: basal gastric acid secretion in pylorus-ligated rat; assay: Inhibition of basal gastric acid secretion in pylorus-ligated rat (Shay's rat model); type: in vivo; conditions: total acid output, male SD rats, 3 mg/kg into the caudal vein, 5 hours after pylorus ligation
Protocol: 3) Effect of Inhibiting Basal Gastric Acid Secretion in Pylorus-Ligated Rat
The measurement of effect of inhibiting basal gastric acid secretion by the compound of the present invention was conducted according to shay's rat model (Shay, H., et al., 1945, gastroenterology, 5, p 43-61). Male Sprague Dawley (SD) rats (body weight 180-220 g) were divided into X groups (n=5), and fasted while feeding only water for 18 hours. Under isoflurane anesthesia, incision of abdominal cavity of rat was made to ligate pylorus, and, immediately after the ligation, to the control groups, only an aqueous solution of 10% ethanol, 20% polyethyleneglycol (PEG) 400 and 10% Cremophor was administered into the caudal vein, and to the other groups, a test compound suspended in an aqueous solution of 10% ethanol, 20% polyethyleneglycol 400, 10% Cremophor was administered into the caudal vein at a dose of 3 mg/kg/2 ml. […] The amount and the pH of the obtained gastric juice were measured, the acidity of gastric juice was measured with 0.1 N-NaOH volume (ueq/ml) required for automatic titration of gastric juice to pH 7.0, and total acid output was calculated by multiplying the acidity of gastric juice and the amount of gastric juice. % Inhibition activity of test compound=(total acid secretion of control group−total acid secretion of the group treated with test compound)/total acid secretion of control group×100

| Structure (SMILES) | % inhibition activity |
| --- | --- |
| CNC1CCc2c1cn(S(=O)(=O)c1cccc(Cl)c1)c2-c1ccccc1F (stereo not drawn) [Example 1] | 92% |
| CNC1CCc2c1cn(S(=O)(=O)c1cccc(F)c1)c2-c1ccc(F)cc1F (stereo not drawn) [Example 113, 1-(2,4-difluorophenyl)-2-((3-fluorophenyl)sulfonyl)-N-methyl-2,4,5,6-tetrahydrocyclopenta[c]pyrrol-4-amine] | 52% |
